Target: human PDE2A1 (Homo sapiens (Human), UniProt O00408)
Assay: IMAP FP PDE selectivity panel, human PDE2A1
Assay type: biochemical
Settings: Human PDE2, Lab B; read-out: Human PDE2 Ki (nM) - Lab B
Protocol: Selectivity for PDE2, as compared to other PDE families, was assessed using the IMAP® technology. Human PDE 10A2 enzyme was prepared from cytosolic fractions of transiently transfected HEK cells. All other PDE's were GST Tag human enzyme expressed in insect cells and were obtained from BPS Bioscience (San Diego, Calif.): PDE1A (Cat#60010), human PDE2A1 (Cat#60020), PDE3A (Cat#60030), PDE4A1A (Cat#60040), PDE5A1 (Cat#60050), PDE6C (Cat#60060), PDE7A (Cat#60070), PDE8A1 (Cat#60080), PDE9A2 (Cat#60090), PDE11A4 (Cat#60110).
Assays for PDE 1 through 11 were performed in parallel at room temperature in 384-well microtiter plates with an incubation volume of 20.2 μL. Solutions of test compounds were prepared in DMSO and serially diluted with DMSO to yield 30 μL of each of ten solutions differing by 3-fold in concentration, at 32 serial dilutions per plate. […] A Labcyte POD 810 (Labcyte, Sunnyvale, Calif.) was used to dispense 200 nL from each well of the titration plate to make eleven copies of the assay plate for each titration, one copy for each PDE enzyme. A solution of each enzyme (dilution from aliquots, sufficient to produce 20% substrate conversion) and a separate solution of FAM-labeled cAMP or FAM-labeled cGMP from Molecular Devices (Sunnyvale, Calif., product # R7506 or cGMP#R7508), at a final concentration of 50 nM were made in the assay buffer (10 mM Tris HCl, pH 7.2, 10 mM MgCl2, 0.05% NaN3 0.01% Tween-20, and 1 mM DTT). Note that the substrate for PDE2 is 50 nM FAM cAMP containing 1000 nM of cGMP. The enzyme and the substrate were then added to the assay plates in two consecutive additions of 10 μL and then shaken to mix. The reaction was allowed to proceed at room temperature for 60 minutes. A binding solution was then made from the kit components, comprised of 80% Solution A, 20% Solution B and binding reagent at a volume of 1/600 the total binding solution. The enzymatic reaction was stopped by addition of 60 μL of the binding solution to each well of the assay plate. The plates were sealed and shaken for 10 seconds. The plates were incubated at room temperature for one hour, then the parallel and perpendicular fluorescence was measured using a Tecan Genios Pro plate reader (Tecan, Switzerland). The apparent inhibition constants for the compounds against all 11 PDE's was determined from the parallel and perpendicular fluorescent readings as described for PDE10 FP assay using the following apparent KM values for each enzyme and substrate combination: PDE1A (FAM cGMP) 70 nM, human PDE2A1 (FAM cAMP) 10,000 nM, PDE3A (FAM cAMP) 50 nM, PDE4A1A (FAM cAMP) 1500 nM, PDE5A1 (FAM cGMP) 400 nM, PDE6C (FAM cGMP) 700 nM, PDE7A (FAM cAMP) 150 nM, PDE8A1 (FAM cAMP) 50 nM, PDE9A2 (FAM cGMP) 60 nM, PDE10A2 (FAM cAMP) 150 nM, PDE11A4 (FAM cAMP) 1000 nM. The intrinsic PDE2 inhibitory activity of a compound which may be used in accordance with the present invention may be determined by these assays.

Sequence of human PDE2A1 (O00408 other isoform, or with tags, fused parts or gaps): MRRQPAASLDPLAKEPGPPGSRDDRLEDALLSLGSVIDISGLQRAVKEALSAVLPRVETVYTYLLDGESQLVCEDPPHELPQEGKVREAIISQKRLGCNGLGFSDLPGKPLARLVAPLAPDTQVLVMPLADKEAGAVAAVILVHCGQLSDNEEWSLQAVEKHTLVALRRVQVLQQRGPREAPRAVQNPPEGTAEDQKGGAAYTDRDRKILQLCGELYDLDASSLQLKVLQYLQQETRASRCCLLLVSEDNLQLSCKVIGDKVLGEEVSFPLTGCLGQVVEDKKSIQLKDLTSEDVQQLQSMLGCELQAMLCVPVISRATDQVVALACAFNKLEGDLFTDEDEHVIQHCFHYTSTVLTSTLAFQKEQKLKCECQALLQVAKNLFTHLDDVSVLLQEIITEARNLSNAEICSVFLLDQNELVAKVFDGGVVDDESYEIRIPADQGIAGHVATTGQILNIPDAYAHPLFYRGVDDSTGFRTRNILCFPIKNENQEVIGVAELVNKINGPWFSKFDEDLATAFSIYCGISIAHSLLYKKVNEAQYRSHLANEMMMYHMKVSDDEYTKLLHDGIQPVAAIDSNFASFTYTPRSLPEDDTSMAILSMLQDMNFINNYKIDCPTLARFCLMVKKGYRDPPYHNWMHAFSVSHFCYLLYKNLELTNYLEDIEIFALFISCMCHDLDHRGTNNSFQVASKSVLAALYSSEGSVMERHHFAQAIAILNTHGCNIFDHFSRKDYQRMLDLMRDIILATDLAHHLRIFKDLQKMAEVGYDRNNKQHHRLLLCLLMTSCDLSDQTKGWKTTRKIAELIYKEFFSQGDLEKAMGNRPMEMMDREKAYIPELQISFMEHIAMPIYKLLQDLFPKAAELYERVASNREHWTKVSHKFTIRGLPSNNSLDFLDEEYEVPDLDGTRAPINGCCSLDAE

Question: `CC(NC(=O)c1cc(=O)[nH]c(-c2ccccc2)n1)c1ccc(C2(C(F)(F)F)CC2)cc1` (single isomer, unassigned) [Example 690, (S)- or (R)-6-oxo-2-phenyl-N-(1-(4-(1-(trifluoromethyl)cyclopropyl)phenyl)-ethyl)-1,6-dihydropyrimidine-4-carboxamide] was tested. Which Ki did it give?
Answer: > 2960 nM

Question: For `CC(C)(C)[C@@H](NC(=O)c1cc(=O)[nH]c(-c2ncccn2)n1)c1ccc(C(F)(F)F)c([N+](=O)[O-])c1` [Example 567, N-{(1R)-2,2-dimethyl-1-[3-nitro-4-(trifluoromethyl)phenyl]propyl}-6-oxo-1,6-dihydro-2,2′-bipyrimidine-4-carboxamide], which Ki is on record?
Answer: 49 nM

Question: Which Ki does the source give for `CCC(C)(NC(=O)c1cc(=O)[nH]c(C)n1)c1ccc(C(F)(F)F)cc1F` (single isomer, unassigned) [Example 719, (R)- or (S)-N-(2-(2-fluoro-4-(trifluoromethyl)phenyl)butan-2-yl)-2-methyl-6-oxo-1,6-dihydropyrimidine-4-carboxamide] here?
Answer: 7.7 nM

Question: With `Cc1nc(C(=O)N[C@@H](c2ccc3c(c2)OC(F)(F)O3)C(C)(C)C)cc(=O)[nH]1` [Example 633, N-[(1R)-1-(2,2-difluoro-1,3-benzodioxol-5-yl)-2,2-dimethylpropyl]-2-methyl-6-oxo-1,6-dihydropyrimidine-4-carboxamide] as the molecule, how does the Ki read?
Answer: 16 nM

Question: For `CC(C)[C@@H](NC(=O)c1cc(=O)[nH]c(-c2ccccc2)n1)c1ccc(C2(C)CC2)cc1` [Example 533, N-{(1R)-2-methyl-1-[4-(1-methylcyclopropyl)phenyl]propyl}-6-oxo-2-phenyl-1,6-dihydropyrimidine-4-carboxamide], which Ki is on record?
Answer: 8 nM

Question: `O=C(NC1(c2ccc(S(F)(F)(F)(F)F)cc2)CC1)c1cc(=O)[nH]c(-c2ccccc2)n1` [Example 553, 6-oxo-N-{1-[4-(pentafluoro-λ^6-sulfanyl)phenyl]cyclopropyl}-2-phenyl-1,6-dihydropyrimidine-4-carboxamide] was tested. Which Ki did it give?
Answer: 10 nM

Question: Which Ki does the source give for `C[C@@H](NC(=O)c1cc(=O)[nH]c(-c2ncco2)n1)c1ccc(C(F)(F)F)cc1` [Example 675, (R)-2-(oxazol-2-yl)-6-oxo-N-(1-(4-(trifluoromethyl)phenyl)ethyl)-1,6-dihydropyrimidine-4-carboxamide] here?
Answer: 234 nM

Question: For `Cc1nc(C(=O)NC2(c3ccc(CC(F)(F)F)cc3)CC2)cc(=O)[nH]1` [Example 627, 2-methyl-6-oxo-N-{1-[4-(2,2,2-trifluoroethyl)phenyl]cyclopropyl}-1,6-dihydropyrimidine-4-carboxamide], which Ki is on record?
Answer: 46 nM

Question: Which Ki does the source give for `O=C(N[C@@H]1COCc2cc(C(F)(F)F)ccc21)c1cc(=O)[nH]c(-c2ccccc2)n1` [Example 551, 6-oxo-2-phenyl-N-[(4S)-7-(trifluoromethyl)-3,4-dihydro-1H-isochromen-4-yl]-1,6-dihydropyrimidine-4-carboxamide] here?
Answer: 157 nM

Question: How did the Ki turn out when `Cc1nc(C(=O)NC2(c3ccc(C(F)(F)F)cc3F)CC2)cc(=O)[nH]1` [Example 625, N-{1-[2-fluoro-4-(trifluoromethyl)phenyl]cyclopropyl}-2-methyl-6-oxo-1,6-dihydropyrimidine-4-carboxamide] was run?
Answer: 51 nM

Question: How did the Ki turn out when `CC(C)[C@@H](NC(=O)c1cc(=O)[nH]c(-c2ccccc2)n1)c1ccc(OC(F)F)cc1` [Example 543, N-{(1R)-1-[4-(difluoromethoxy)phenyl]-2-methylpropyl}-6-oxo-2-phenyl-1,6-dihydropyrimidine-4-carboxamide] was run?
Answer: 5.2 nM

Target: Rhesus PDE2A3 (Macaca mulatta, UniProt B3VTJ2)
Assay: PDE2 fluorescence polarization (IMAP FP) inhibition assay, rhesus enzyme
Assay type: biochemical, rhesus macaque
Settings: Rhesus PDE2, Lab A, at 1 uM
In short: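 Rhesus PDE2A3 came from lysate of transiently transfected AD293 cells, diluted to give 20% substrate conversion. Substrate was 50 nM FAM-cAMP with 1 uM cGMP activator in Tris pH 7.2/MgCl2 buffer, run 60 min at room temperature over 10-point 3-fold dilutions in 1% DMSO. Read-out was IMAP fluorescence polarization (mP) after ≥1 h binding.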

Sequence of Rhesus PDE2A3 (B3VTJ2 1-941): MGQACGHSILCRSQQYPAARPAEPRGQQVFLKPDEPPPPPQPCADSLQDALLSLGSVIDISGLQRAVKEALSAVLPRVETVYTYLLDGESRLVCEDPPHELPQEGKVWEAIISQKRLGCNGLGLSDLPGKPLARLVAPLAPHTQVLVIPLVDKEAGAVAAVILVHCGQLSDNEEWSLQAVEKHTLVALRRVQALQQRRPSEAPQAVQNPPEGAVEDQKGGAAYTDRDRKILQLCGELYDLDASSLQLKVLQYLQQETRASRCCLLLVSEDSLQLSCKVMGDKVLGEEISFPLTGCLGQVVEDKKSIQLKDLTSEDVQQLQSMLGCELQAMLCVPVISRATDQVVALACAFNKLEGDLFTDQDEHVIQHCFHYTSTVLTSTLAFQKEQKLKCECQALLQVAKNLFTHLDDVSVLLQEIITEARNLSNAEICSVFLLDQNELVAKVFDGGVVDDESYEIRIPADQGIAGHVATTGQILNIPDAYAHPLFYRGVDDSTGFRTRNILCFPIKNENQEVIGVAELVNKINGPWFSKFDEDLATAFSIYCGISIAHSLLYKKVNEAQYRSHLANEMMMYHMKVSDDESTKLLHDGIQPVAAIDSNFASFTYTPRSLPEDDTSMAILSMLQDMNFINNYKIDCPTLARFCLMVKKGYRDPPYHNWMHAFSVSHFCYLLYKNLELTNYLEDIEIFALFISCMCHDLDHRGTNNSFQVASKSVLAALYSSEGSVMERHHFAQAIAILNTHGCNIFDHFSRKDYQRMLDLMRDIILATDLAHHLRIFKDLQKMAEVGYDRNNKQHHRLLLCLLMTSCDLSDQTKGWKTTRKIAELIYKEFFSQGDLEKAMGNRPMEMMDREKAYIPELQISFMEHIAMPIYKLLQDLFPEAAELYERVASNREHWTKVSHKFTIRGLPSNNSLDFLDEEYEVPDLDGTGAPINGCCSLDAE

Question: Which “Rhesus PDE2 % inh. at 1 uM - Lab A” value does the source give for `O=C(NC(c1ccccc1)c1ccc(C(F)(F)F)cc1)c1cc(=O)[nH]c(-c2ccccc2)n1` (centres unmarked) [Example 162, 6-oxo-2-phenyl-N-{phenyl[4-(trifluoromethyl)phenyl]methyl}-1,6-dihydropyrimidine-4-carboxamide] here?
Answer: 45 % inh.

Same assay, conditions: Rhesus PDE2, Lab A; read-out: Rhesus PDE2 Ki (nM) - Lab A

Question: For `O=C(NC(c1ccccc1)c1ccc(C(F)(F)F)cc1)c1cc(=O)[nH]c(-c2ccccc2)n1` (centres unmarked) [Example 162, 6-oxo-2-phenyl-N-{phenyl[4-(trifluoromethyl)phenyl]methyl}-1,6-dihydropyrimidine-4-carboxamide], which Ki is on record?
Answer: > 1000 nM

Question: `O=C(NC1(c2ccc(C(F)(F)F)cc2)CCCC1)c1cc(=O)[nH]c(-c2ncccn2)n1` [Example 72, 6-oxo-N-{1-[4-(trifluoromethyl)phenyl]cyclopentyl}-1,6-dihydro-2,2′-bipyrimidine-4-carboxamide] was tested. Which Ki did it give?
Answer: 333 nM

Question: Which Ki does the source give for `Cc1nc(C(=O)N[C@H](C)c2ccc(-c3ccc(C(F)(F)F)cc3)cc2)cc(=O)[nH]1` [Example 318, 2-methyl-6-oxo-N-{(1R)-1-[4′-(trifluoromethyl)biphenyl-4-yl]ethyl}-1,6-dihydropyrimidine-4-carboxamide] here?
Answer: 73 nM

Question: Which Ki does the source give for `CC(NC(=O)c1cc(=O)[nH]c(-c2ccccc2)n1)c1cccc(Cl)c1` (centres unmarked) [Example 368, N-[1-(3-chlorophenyl)ethyl]-6-oxo-2-phenyl-1,6-dihydropyrimidine-4-carboxamide] here?
Answer: ~880 nM

Question: `Cc1nc(C(=O)N[C@H](C)c2ccc([S+]([O-])C(F)(F)F)cc2)cc(=O)[nH]1` (some centres unmarked) [Example 330] was tested. Which Ki did it give?
Answer: 809 nM

Question: With `COc1cc(C(C)NC(=O)c2cc(=O)[nH]c(C)n2)ccc1C(F)(F)F` (centres unmarked) [Example 27, N-{1-[3-methoxy-4-(trifluoromethyl)phenyl]ethyl}-2-methyl-6-oxo-1,6-dihydropyrimidine-4-carboxamide] as the molecule, how does the Ki read?
Answer: 1160 nM

Question: With `COC(=O)c1ccc(C(C)(C)NC(=O)c2cc(=O)[nH]c(-c3ccccc3)n2)cc1` [Example 160, methyl 4-(1-methyl-1-{[(6-oxo-2-phenyl-1,6-dihydropyrimidin-4-yl)carbonyl]amino}ethyl)benzoate] as the molecule, how does the Ki read?
Answer: 826 nM

Same assay, conditions: Rhesus PDE2, Lab B; read-out: Rhesus PDE2 Ki (nM) - Lab B

Question: For `CC(NC(=O)c1cc(=O)[nH]c(-c2ccccc2)n1)c1ccc(-c2ccncc2)cc1` (centres unmarked) [Example 384, 6-oxo-2-phenyl-N-[1-(4-pyridin-4-ylphenyl)ethyl]-1,6-dihydropyrimidine-4-carboxamide], which Ki is on record?
Answer: 319 nM

Question: `CC(NC(=O)c1cc(=O)[nH]c(-c2ccccc2)n1)c1cccc(C(F)(F)F)c1` (centres unmarked) [Example 395, 6-oxo-2-phenyl-N-{1-[3-(trifluoromethyl)phenyl]ethyl}-1,6-dihydropyrimidine-4-carboxamide] was tested. Which Ki did it give?
Answer: 2050 nM

Question: With `O=C(NC(c1ccccc1)c1ccc(C(F)(F)F)cc1)c1cc(=O)[nH]c(-c2ccccc2)n1` (centres unmarked) [Example 162, 6-oxo-2-phenyl-N-{phenyl[4-(trifluoromethyl)phenyl]methyl}-1,6-dihydropyrimidine-4-carboxamide] as the molecule, how does the Ki read?
Answer: 1000 nM

Question: For `Cc1nc(C(=O)NC(c2ccc(SC(F)(F)F)c(F)c2)C2(C)CC2)cc(=O)[nH]1` (single isomer, unassigned) [Example 703, (S)- or (R)-N-((3-fluoro-4-((trifluoromethyl)thio)phenyl)(1-methylcyclopropyl)methyl)-2-methyl-6-oxo-1,6-dihydropyrimidine-4-carboxamide], which Ki is on record?
Answer: > 2970 nM

Question: `Cc1nc(C(=O)N[C@H](C)c2ccc(-c3ccc(C(F)(F)F)cc3)cc2)cc(=O)[nH]1` [Example 318, 2-methyl-6-oxo-N-{(1R)-1-[4′-(trifluoromethyl)biphenyl-4-yl]ethyl}-1,6-dihydropyrimidine-4-carboxamide] was tested. Which Ki did it give?
Answer: 189 nM

Question: How did the Ki turn out when `CC(NC(=O)c1cc(=O)[nH]c(-c2ccccc2)n1)c1cccc(Cl)c1` (centres unmarked) [Example 368, N-[1-(3-chlorophenyl)ethyl]-6-oxo-2-phenyl-1,6-dihydropyrimidine-4-carboxamide] was run?
Answer: 1100 nM

Question: `C[C@H](NC(=O)c1cc(=O)[nH]c(-c2ccccc2)n1)c1ccc([N+](=O)[O-])cc1` [Example 458, N-[(1S)-1-(4-nitrophenyl)ethyl]-6-oxo-2-phenyl-1,6-dihydropyrimidine-4-carboxamide] was tested. Which Ki did it give?
Answer: 8130 nM

Question: How did the Ki turn out when `O=C(NC1(c2ccccc2OC(F)(F)F)CCC1)c1cc(=O)[nH]c(-c2ccccc2)n1` [Example 411, 6-oxo-2-phenyl-N-{1-[2-(trifluoromethoxy)phenyl]cyclobutyl}-1,6-dihydropyrimidine-4-carboxamide] was run?
Answer: 1460 nM

Question: How did the Ki turn out when `O=C(NC(c1ccncc1)c1ccc(C(F)(F)F)cc1)c1cc(=O)[nH]c(-c2ccccc2)n1` (centres unmarked) [Example 399, 6-oxo-2-phenyl-N-{pyridin-4-yl[4-(trifluoromethyl)phenyl]methyl}-1,6-dihydropyrimidine-4-carboxamide] was run?
Answer: 407 nM

Question: `COC(=O)C(NC(=O)c1cc(=O)[nH]c(-c2ccccc2)n1)c1ccc(C(F)(F)F)cc1` (centres unmarked) [Example 406, methyl {[(6-oxo-2-phenyl-1,6-dihydropyrimidin-4-yl)carbonyl]amino}[4-(trifluoromethyl)phenyl]acetate] was tested. Which Ki did it give?
Answer: 226 nM

Reference: US9815796B2 (Merck Sharp & Dohme Corp., priority 2013, dated 2017)
